Laboratory results from ChEMBL document CHEMBL1122787, “Acetylenic nucleosides. 3. Synthesis and biological activities of some 5-ethynylpyrimidine nucleosides” (1984).
Active and inactive are the calls of the source. The calls are words filed in the database; no cut-off is given here.

Tests used:
B16 [1] = test: Compound was evaluated for antitumor activity against B16 melanoma cell lines in culture; type: functional, Mus musculus
L1210 [2] = test: Compound was evaluated for antitumor activity against L-1210 cell lines in culture; type: functional, Mus musculus
[3] = Compound was evaluated for its concentration for antiviral activity against the replication of herpes simplex virus type 1 in monkey kidney cells; type: functional, Cercopithecidae
B16 [4] = test: Compound was evaluated for antitumor activity against B16 melanoma cell lines in culture; IN-Inactive at 10E-4 concentration; type: functional, cell-based; conditions: Mus musculus
L1210 [5] = test: Compound was evaluated for antitumor activity against L-1210 cell lines in culture; IN-Inactive at 10E-4 concentration; type: functional, cell-based; conditions: Mus musculus

| SMILES | Inhibition (B16 [1]) [µM] | Inhibition (L1210 [2]) [µM] | ID90 [3] [µM] | Inhibition (B16 [4]) | Inhibition (L1210 [5]) |
| --- | --- | --- | --- | --- | --- |
| C#Cc1cn([C@@H]2O[C@H](CO)[C@@H](O)[C@@H]2F)c(=O)nc1N | ~60 | ~60 | 50 | – | – |
| C#Cc1cn([C@@H]2O[C@H](CO)[C@@H](O)[C@@H]2N=[N+]=[N-])c(=O)[nH]c1=O | – | – | – | inactive | inactive |
